Measurements from the NIST ThermoML archive (doi:10.1021/je050020m).
± gives the expanded uncertainty stated by the source.

Assay: xn = mol fraction of the nth substance listed
Settings: Liquid, Vibrating tube method

SMILES: CCCCCCCCCC [decane] + O=C=O
- mass density (342.87 K, 9030 kPa, x2 = 0.2369): 707.28 ± 0.54 kg/m3
- mass density (342.87 K, 10014 kPa, x2 = 0.4536): 716.02 ± 0.51 kg/m3
- mass density (342.87 K, 10017 kPa, x2 = 0.2369): 708.4 ± 0.54 kg/m3
- mass density (342.87 K, 11019 kPa, x2 = 0.2369): 709.54 ± 0.55 kg/m3
- mass density (342.87 K, 11025 kPa, x2 = 0.4536): 717.56 ± 0.51 kg/m3
- mass density (342.87 K, 12003 kPa, x2 = 0.2369): 710.62 ± 0.55 kg/m3
- mass density (342.87 K, 12015 kPa, x2 = 0.4536): 719.02 ± 0.51 kg/m3
- mass density (342.87 K, 13006 kPa, x2 = 0.4536): 720.46 ± 0.52 kg/m3
- mass density (342.87 K, 13017 kPa, x2 = 0.2369): 711.73 ± 0.55 kg/m3
- mass density (342.87 K, 14013 kPa, x2 = 0.2369): 712.79 ± 0.56 kg/m3
- mass density (342.87 K, 14013 kPa, x2 = 0.4536): 721.87 ± 0.52 kg/m3
- mass density (342.87 K, 15001 kPa, x2 = 0.4536): 723.23 ± 0.53 kg/m3
- mass density (342.87 K, 15021 kPa, x2 = 0.2369): 713.84 ± 0.56 kg/m3
- mass density (342.87 K, 16004 kPa, x2 = 0.2369): 714.86 ± 0.57 kg/m3
- mass density (342.87 K, 16029 kPa, x2 = 0.4536): 724.63 ± 0.53 kg/m3
- mass density (342.87 K, 17018 kPa, x2 = 0.2369): 715.9 ± 0.57 kg/m3
- mass density (342.87 K, 17019 kPa, x2 = 0.4536): 725.94 ± 0.54 kg/m3
- mass density (342.87 K, 18016 kPa, x2 = 0.2369): 716.89 ± 0.58 kg/m3
- mass density (342.87 K, 18026 kPa, x2 = 0.4536): 727.26 ± 0.54 kg/m3
- mass density (342.87 K, 19005 kPa, x2 = 0.2369): 717.86 ± 0.58 kg/m3
- mass density (342.87 K, 19018 kPa, x2 = 0.4536): 728.54 ± 0.55 kg/m3
- mass density (342.87 K, 20000 kPa, x2 = 0.2369): 718.83 ± 0.59 kg/m3
- mass density (342.87 K, 20000 kPa, x2 = 0.4536): 729.75 ± 0.55 kg/m3
- mass density (342.87 K, 21007 kPa, x2 = 0.4536): 731.02 ± 0.56 kg/m3
- mass density (342.87 K, 21023 kPa, x2 = 0.2369): 719.83 ± 0.59 kg/m3
- mass density (342.87 K, 22008 kPa, x2 = 0.2369): 720.78 ± 0.6 kg/m3
- mass density (342.87 K, 22021 kPa, x2 = 0.4536): 732.28 ± 0.56 kg/m3
- mass density (342.87 K, 23029 kPa, x2 = 0.2369): 721.76 ± 0.6 kg/m3
- mass density (342.87 K, 23032 kPa, x2 = 0.4536): 733.5 ± 0.57 kg/m3
- mass density (342.87 K, 23992 kPa, x2 = 0.2369): 722.74 ± 0.61 kg/m3
- mass density (342.87 K, 24017 kPa, x2 = 0.4536): 734.7 ± 0.57 kg/m3
- mass density (342.87 K, 25008 kPa, x2 = 0.2369): 723.65 ± 0.61 kg/m3
- mass density (342.87 K, 25029 kPa, x2 = 0.4536): 735.91 ± 0.58 kg/m3
- mass density (352.75 K, 14010 kPa, x2 = 0.9663): 449.95 ± 1.1 kg/m3
- mass density (352.75 K, 15010 kPa, x2 = 0.9663): 494.4 ± 1 kg/m3
- mass density (352.75 K, 16020 kPa, x2 = 0.9663): 532.74 ± 0.95 kg/m3
- mass density (352.75 K, 17024 kPa, x2 = 0.9663): 566.61 ± 0.89 kg/m3
- mass density (352.75 K, 18026 kPa, x2 = 0.9663): 594.54 ± 0.83 kg/m3
- mass density (352.75 K, 19015 kPa, x2 = 0.9663): 618.22 ± 0.77 kg/m3
- mass density (352.75 K, 20016 kPa, x2 = 0.9663): 638.64 ± 0.74 kg/m3
- mass density (352.75 K, 21018 kPa, x2 = 0.9663): 656.61 ± 0.71 kg/m3
- mass density (352.75 K, 22006 kPa, x2 = 0.9663): 672.26 ± 0.68 kg/m3
- mass density (352.75 K, 23021 kPa, x2 = 0.9663): 686.58 ± 0.66 kg/m3
- mass density (352.75 K, 24018 kPa, x2 = 0.9663): 699.34 ± 0.65 kg/m3
- mass density (352.75 K, 25017 kPa, x2 = 0.9663): 710.94 ± 0.64 kg/m3
- mass density (352.76 K, 14034 kPa, x2 = 0.8114): 701.72 ± 2.1 kg/m3
- mass density (352.76 K, 15050 kPa, x2 = 0.8114): 707.51 ± 0.53 kg/m3
- mass density (352.76 K, 15994 kPa, x2 = 0.8114): 712.45 ± 0.53 kg/m3
- mass density (352.76 K, 17009 kPa, x2 = 0.8114): 717.35 ± 0.53 kg/m3
- mass density (352.76 K, 18024 kPa, x2 = 0.8114): 722.02 ± 0.53 kg/m3
- mass density (352.76 K, 19033 kPa, x2 = 0.8114): 726.33 ± 0.53 kg/m3
- mass density (352.76 K, 20039 kPa, x2 = 0.8114): 730.42 ± 0.53 kg/m3
- mass density (352.76 K, 21009 kPa, x2 = 0.8114): 734.16 ± 0.53 kg/m3
- mass density (352.76 K, 22013 kPa, x2 = 0.8114): 737.84 ± 0.54 kg/m3
- mass density (352.76 K, 23004 kPa, x2 = 0.8114): 741.32 ± 0.54 kg/m3
- mass density (352.76 K, 24035 kPa, x2 = 0.8114): 744.84 ± 0.54 kg/m3
- mass density (352.76 K, 25042 kPa, x2 = 0.8114): 748.08 ± 0.56 kg/m3
- mass density (352.78 K, 2008 kPa, x2 = 0.0551): 686.89 ± 0.54 kg/m3
- mass density (352.78 K, 3010 kPa, x2 = 0.0551): 688.04 ± 0.55 kg/m3
- mass density (352.78 K, 4018 kPa, x2 = 0.0551): 689.18 ± 0.55 kg/m3
- mass density (352.78 K, 5014 kPa, x2 = 0.0551): 690.28 ± 0.56 kg/m3
- mass density (352.78 K, 6015 kPa, x2 = 0.0551): 691.42 ± 0.56 kg/m3
- mass density (352.78 K, 7011 kPa, x2 = 0.0551): 692.46 ± 0.56 kg/m3
- mass density (352.78 K, 8024 kPa, x2 = 0.0551): 693.62 ± 0.57 kg/m3
- mass density (352.78 K, 8988 kPa, x2 = 0.0551): 694.56 ± 0.57 kg/m3
- mass density (352.78 K, 10035 kPa, x2 = 0.0551): 695.65 ± 0.58 kg/m3
- mass density (352.78 K, 11021 kPa, x2 = 0.0551): 696.68 ± 0.58 kg/m3
